Literature values in patent US20150291756A1, “PROCESS FOR THE PRODUCTION OF RIGID FOAMED OBJECTS MADE OF POLYMER MATERIALS” (priority 2013, published 2015).
Where two headings read alike, the source gives them in different places.

What was measured:
[1] = toxicological studies
rats = settings: 4-hour exposure, decomposition residues of the diazocompound (TSMN for AIBN)
[2] = substance as such
[3] = recommended by OSHA, ACGIH, NIOSH
human = human inhalative exposure; BASF Risk Assessment study

SMILES	carcinogenic and genotoxic activity [1]	Approximate Lethal Concentration Values by inhalation of its residues (ALC) (rats) [mg/L]	EU Hazard Classification [2]	occupational permissible exposure limit [3] [ppm]	occupational permissible exposure limit ([3]; equivalent of the ppm value) [mg/m^3]	tentative Derived No Effect Level (DNEL) (human) [μg/m^3]
NC(=O)N=NC(N)=O [ADC, Azodicarbonamide]	carcinogenic and genotoxic activity	–	–	–	–	–
CCC(C)(C#N)N=NC(C)(C#N)CC (stereo not shown) [AMBN, 2,2′-Azobis(2-methylbutanenitrile)]	–	8.7	Harmful	–	–	–
CC(C)(C#N)C(C)(C)C#N [TMSN, 2,2,3,3-tetramethylbutanedinitrile]	–	0.1	–	0.5	3	25
